In patent US20230250066A1, “HERBICIDAL CINNOLINE DERIVATIVES” (SYNGENTA CROP PROTECTION AG, priority 2020, published 2023):

How the values were obtained:
Type in all cases: in vivo
[1] = test system: Amaranthus retoflexus (AMARE); experiment: Pre-emergence herbicidal test; details: 1000 g/ha, evaluated after 13 days
[2] = test system: Setaria faberi (SETFA); experiment: Pre-emergence herbicidal test; details: 1000 g/ha, evaluated after 13 days
[3] = test system: Echinochloa crus-galli (ECHCG); experiment: Pre-emergence herbicidal test; details: 1000 g/ha, evaluated after 13 days
[4] = test system: Ipomoea hederacea (IPOHE); experiment: Pre-emergence herbicidal test; details: 1000 g/ha, evaluated after 13 days
[5] = test system: Abutilon theophrasti (ABUTH); experiment: Pre-emergence herbicidal test; details: 1000 g/ha, evaluated after 13 days
[6] = test system: Zea mays (ZEAMX); experiment: Pre-emergence herbicidal test; details: 1000 g/ha, evaluated after 13 days
[7] = test system: Abutilon theophrasti (ABUTH); experiment: Post-emergence herbicidal test; details: 1000 g/ha unless otherwise stated, evaluated after 13 days
Method in brief: (§1)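 Pots sown in standard soil were kept in a glasshouse (24° C./16° C. day/night, 14 hours light, 65% humidity) and sprayed at 1000 g/ha unless otherwise stated in acetone/water (50:50) with 0.5% Tween 20. Percentage damage was scored after 13 days on a 0–5 scale.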

[8] = test system: Amaranthus retoflexus (AMARE); experiment: Post-emergence herbicidal test; details: 1000 g/ha unless otherwise stated, evaluated after 13 days
Method in brief: as §1

[9] = test system: Echinochloa crus-galli (ECHCG); experiment: Post-emergence herbicidal test; details: 1000 g/ha unless otherwise stated, evaluated after 13 days
Method in brief: as §1

[10] = test system: Ipomoea hederacea (IPOHE); experiment: Post-emergence herbicidal test; details: 1000 g/ha unless otherwise stated, evaluated after 13 days
Method in brief: as §1

[11] = test system: Setaria faberi (SETFA); experiment: Post-emergence herbicidal test; details: 1000 g/ha unless otherwise stated, evaluated after 13 days
Method in brief: as §1

[12] = test system: Zea mays (ZEAMX); experiment: Post-emergence herbicidal test; details: 1000 g/ha unless otherwise stated, evaluated after 13 days
Method in brief: as §1

O=C(O)c1nn(-c2ccc(OC(F)(F)F)cc2)c2cccc(SC3CC3)c2c1=O [Compound P30, 5-cyclopropylsulfanyl-4-oxo-1-[4-(trifluoromethoxy)phenyl]cinnoline-3-carboxylic acid]
percentage damage caused to the plant, five-point scale, AMARE [1]: 0 (0=0%)
percentage damage caused to the plant, five-point scale, SETFA [2]: 0 (0=0%)
percentage damage caused to the plant, five-point scale, ECHCG [3]: 0 (0=0%)
percentage damage caused to the plant, five-point scale, IPOHE [4]: 0 (0=0%)
percentage damage caused to the plant, five-point scale, ABUTH [5]: 0 (0=0%)
percentage damage caused to the plant, five-point scale, ZEAMX [6]: 0 (0=0%)
percentage damage caused to the plant, ABUTH (five-point scale) [7]: 1 (1=10-20%)
percentage damage caused to the plant, AMARE (five-point scale) [8]: 1 (1=10-20%)
percentage damage caused to the plant, ECHCG (five-point scale) [9]: 1 (1=10-20%)
percentage damage caused to the plant, IPOHE (five-point scale) [10]: 1 (1=10-20%)
percentage damage caused to the plant, SETFA (five-point scale) [11]: 1 (1=10-20%)
percentage damage caused to the plant, ZEAMX (five-point scale) [12]: 1 (1=10-20%)

CCOC(=O)c1nn(-c2ccc(OC(F)(F)F)cc2)c2cccc(S(=O)(=O)CC(F)(F)F)c2c1=O [Compound P40, ethyl 4-oxo-5-(2,2,2-trifluoroethylsulfonyl)-1-[4-(trifluoromethoxy)phenyl]cinnoline-3-carboxylate]
percentage damage caused to the plant, five-point scale, AMARE [1]: 0 (0=0%)
percentage damage caused to the plant, five-point scale, SETFA [2]: 1 (1=10-20%)
percentage damage caused to the plant, five-point scale, ECHCG [3]: 0 (0=0%)
percentage damage caused to the plant, five-point scale, IPOHE [4]: 0 (0=0%)
percentage damage caused to the plant, five-point scale, ABUTH [5]: 1 (1=10-20%)
percentage damage caused to the plant, five-point scale, ZEAMX [6]: 1 (1=10-20%)
percentage damage caused to the plant, ABUTH (five-point scale) [7]: 1 (1=10-20%)
percentage damage caused to the plant, AMARE (five-point scale) [8]: 1 (1=10-20%)
percentage damage caused to the plant, ECHCG (five-point scale) [9]: 1 (1=10-20%)
percentage damage caused to the plant, IPOHE (five-point scale) [10]: 0 (0=0%)
percentage damage caused to the plant, SETFA (five-point scale) [11]: 1 (1=10-20%)
percentage damage caused to the plant, ZEAMX (five-point scale) [12]: 1 (1=10-20%)

CCOC(=O)c1nn(-c2ccc(OC(F)(F)F)cc2)c2cccc(SCC(F)(F)F)c2c1=O [Compound P39, ethyl 4-oxo-5-(2,2,2-trifluoroethylsulfanyl)-1-[4-(trifluoromethoxy)phenyl]cinnoline-3-carboxylate]
percentage damage caused to the plant, five-point scale, AMARE [1]: 1 (1=10-20%)
percentage damage caused to the plant, five-point scale, SETFA [2]: 0 (0=0%)
percentage damage caused to the plant, five-point scale, ECHCG [3]: 0 (0=0%)
percentage damage caused to the plant, five-point scale, IPOHE [4]: 0 (0=0%)
percentage damage caused to the plant, five-point scale, ABUTH [5]: 0 (0=0%)
percentage damage caused to the plant, five-point scale, ZEAMX [6]: 0 (0=0%)
percentage damage caused to the plant, ABUTH (five-point scale) [7]: 1 (1=10-20%)
percentage damage caused to the plant, AMARE (five-point scale) [8]: 0 (0=0%)
percentage damage caused to the plant, ECHCG (five-point scale) [9]: 0 (0=0%)
percentage damage caused to the plant, IPOHE (five-point scale) [10]: 1 (1=10-20%)
percentage damage caused to the plant, SETFA (five-point scale) [11]: 0 (0=0%)
percentage damage caused to the plant, ZEAMX (five-point scale) [12]: 1 (1=10-20%)

CCOC(=O)c1nn(-c2ccc(OC(F)(F)F)cc2)c2cc(OC)cc(SC)c2c1=O [Compound P57, ethyl 7-methoxy-5-methylsulfanyl-4-oxo-1-[4-(trifluoromethoxy)phenyl]cinnoline-3-carboxylate]
percentage damage caused to the plant, five-point scale, AMARE [1]: 0 (0=0%)
percentage damage caused to the plant, five-point scale, SETFA [2]: 0 (0=0%)
percentage damage caused to the plant, five-point scale, ECHCG [3]: 0 (0=0%)
percentage damage caused to the plant, five-point scale, IPOHE [4]: 0 (0=0%)
percentage damage caused to the plant, five-point scale, ABUTH [5]: 0 (0=0%)
percentage damage caused to the plant, five-point scale, ZEAMX [6]: 0 (0=0%)
percentage damage caused to the plant, ABUTH (five-point scale) [7]: 0 (0=0%)
percentage damage caused to the plant, AMARE (five-point scale) [8]: 0 (0=0%)
percentage damage caused to the plant, ECHCG (five-point scale) [9]: 1 (1=10-20%)
percentage damage caused to the plant, IPOHE (five-point scale) [10]: 0 (0=0%)
percentage damage caused to the plant, SETFA (five-point scale) [11]: 1 (1=10-20%)
percentage damage caused to the plant, ZEAMX (five-point scale) [12]: 0 (0=0%)

CS(=O)(=O)c1c(F)ccc2c1c(=O)c(C(=O)O)nn2-c1ccc(OC(F)(F)F)cc1 [Compound P20, 6-fluoro-5-methylsulfonyl-4-oxo-1-[4-(trifluoromethoxy)phenyl]cinnoline-3-carboxylic acid]
percentage damage caused to the plant, five-point scale, AMARE [1]: 0 (0=0%)
percentage damage caused to the plant, five-point scale, SETFA [2]: 0 (0=0%)
percentage damage caused to the plant, five-point scale, ECHCG [3]: 0 (0=0%)
percentage damage caused to the plant, five-point scale, IPOHE [4]: 0 (0=0%)
percentage damage caused to the plant, five-point scale, ABUTH [5]: 0 (0=0%)
percentage damage caused to the plant, five-point scale, ZEAMX [6]: 0 (0=0%)
percentage damage caused to the plant, ABUTH (five-point scale) [7]: 0 (0=0%)
percentage damage caused to the plant, AMARE (five-point scale) [8]: 0 (0=0%)
percentage damage caused to the plant, ECHCG (five-point scale) [9]: 0 (0=0%)
percentage damage caused to the plant, IPOHE (five-point scale) [10]: 0 (0=0%)
percentage damage caused to the plant, SETFA (five-point scale) [11]: 0 (0=0%)
percentage damage caused to the plant, ZEAMX (five-point scale) [12]: 0 (0=0%)

CCOC(=O)c1nn(-c2ccc(OC(F)(F)F)cc2)c2ccc(Br)c(S(C)(=O)=O)c2c1=O [Compound P10, ethyl 6-bromo-5-methysulfonyl-4-oxo-1-[4-(trifluoromethoxy)phenyl]cinnoline-3-carboxylate]
percentage damage caused to the plant, five-point scale, AMARE [1]: 1 (1=10-20%)
percentage damage caused to the plant, five-point scale, SETFA [2]: 1 (1=10-20%)
percentage damage caused to the plant, five-point scale, ECHCG [3]: 0 (0=0%)
percentage damage caused to the plant, five-point scale, IPOHE [4]: 0 (0=0%)
percentage damage caused to the plant, five-point scale, ABUTH [5]: 1 (1=10-20%)
percentage damage caused to the plant, five-point scale, ZEAMX [6]: 0 (0=0%)
percentage damage caused to the plant, ABUTH (five-point scale) [7]: 1 (1=10-20%)
percentage damage caused to the plant, AMARE (five-point scale) [8]: 1 (1=10-20%)
percentage damage caused to the plant, ECHCG (five-point scale) [9]: 1 (1=10-20%)
percentage damage caused to the plant, IPOHE (five-point scale) [10]: 0 (0=0%)
percentage damage caused to the plant, SETFA (five-point scale) [11]: 1 (1=10-20%)
percentage damage caused to the plant, ZEAMX (five-point scale) [12]: 1 (1=10-20%)

CCCCCCCCCCCOC(=O)c1nn(-c2ccc(OC(F)(F)F)cc2)c2cccc(S(C)(=O)=O)c2c1=O [Compound P60, undecyl 5-methylsulfonyl-4-oxo-1-[4-(trifluoromethoxy)phenyl]cinnoline-3-carboxylate]
percentage damage caused to the plant, five-point scale, AMARE [1]: 1 (1=10-20%)
percentage damage caused to the plant, five-point scale, SETFA [2]: 4 (4=61-80%)
percentage damage caused to the plant, five-point scale, ECHCG [3]: 1 (1=10-20%)
percentage damage caused to the plant, five-point scale, IPOHE [4]: 0 (0=0%)
percentage damage caused to the plant, five-point scale, ABUTH [5]: 1 (1=10-20%)
percentage damage caused to the plant, five-point scale, ZEAMX [6]: 1 (1=10-20%)
percentage damage caused to the plant, ABUTH (five-point scale) [7]: 1 (1=10-20%)
percentage damage caused to the plant, AMARE (five-point scale) [8]: 1 (1=10-20%)
percentage damage caused to the plant, ECHCG (five-point scale) [9]: 1 (1=10-20%)
percentage damage caused to the plant, IPOHE (five-point scale) [10]: 1 (1=10-20%)
percentage damage caused to the plant, SETFA (five-point scale) [11]: 1 (1=10-20%)
percentage damage caused to the plant, ZEAMX (five-point scale) [12]: 1 (1=10-20%)

C=CCOC(=O)c1nn(-c2ccc(OC(F)(F)F)cc2)c2cccc(S(C)(=O)=O)c2c1=O [Compound P80, allyl 5-methylsulfonyl-4-oxo-1-[4-(trifluoromethoxy)phenyl]cinnoline-3-carboxylate]
percentage damage caused to the plant, five-point scale, AMARE [1]: 0 (0=0%)
percentage damage caused to the plant, five-point scale, SETFA [2]: 5 (5=81-100%)
percentage damage caused to the plant, five-point scale, ECHCG [3]: 4 (4=61-80%)
percentage damage caused to the plant, five-point scale, IPOHE [4]: 0 (0=0%)
percentage damage caused to the plant, five-point scale, ABUTH [5]: 0 (0=0%)
percentage damage caused to the plant, five-point scale, ZEAMX [6]: 1 (1=10-20%)
percentage damage caused to the plant, ABUTH (five-point scale) [7]: 1 (1=10-20%)
percentage damage caused to the plant, AMARE (five-point scale) [8]: 0 (0=0%)
percentage damage caused to the plant, ECHCG (five-point scale) [9]: 3 (3=41-60%)
percentage damage caused to the plant, IPOHE (five-point scale) [10]: 1 (1=10-20%)
percentage damage caused to the plant, SETFA (five-point scale) [11]: 4 (4=61-80%)
percentage damage caused to the plant, ZEAMX (five-point scale) [12]: 1 (1=10-20%)
